Measurements from US20250269050A1, “CYCLIC DICHALCOGENIDE ADC LINKER UNITS AND USES THEREOF” (priority 2024, published 2025).

Tests used:
[1] = In vivo pharmacokinetics experiment in mice (intact immunoconjugate in plasma, MS-based); settings: single 7 mg/kg intravenous injection, plasma up to 380 h, FIG. 3
Experimental: Mice are maintained in individually ventilated cages at constant temperature (22±2° C., air-conditioned) and humidity (45-65%), under optimum hygienic conditions with 10-15 air changes per hour. A cycle of 12 h artificial fluorescent lightning and 12 h darkness is applied and animal behavior is monitored daily throughout the study. The mice receive food and water ad libitum.
To study the in vivo disposition of molecules of the invention mice are treated once with 6, 7 or commercial Trodelvy® at a dose of 7 mg/kg by intravenous injection. Plasma samples are collected at the following time points: predose, postdose: 2 min, 6 h, 24 h, 48 h, 72 h, 168 h, 240 h, and 380 h. All samples are analyzed using an MS-based analytical method for quantification of the intact immunoconjugates and of the free molecular cargo in the mouse plasma.

[2] = system: Trop-2-positive breast cancer cancer cell line; experiment: Anti-cancer efficacy study in mice, Trop-2-positive cancer model; type: in vivo; settings: single treatment at day 7, 3 mg/kg intravenous

Substance: Trodelvy®
- intact immunoconjugate in mouse plasma over time [1]: fast and significant loss of intact immunoconjugate
- tumor growth compared to the vehicle group ([2]; FIG. 4): strong suppression of tumor growth
- duration of tumor response ([2]; up to day 57, FIG. 4): tumors significantly start to grow again after day 30
